Assay results reported in ChEMBL document CHEMBL1145932, “Design and synthesis of novel bioactive peptides and peptidomimetics” (J Med Chem, 2003).
Activity calls are given as the source filed them. The rule behind the calls is not given here. Numbered stars: 1 amine (or outer) side, 2 acyl side, 3 side chain; on linkers, the order of the positions; unused ones are H or OH. Square brackets hold non-standard residues; d marks the D form. Peptide text beside a SMILES is read from it. * marks the point of attachment. ξ: configuration not given here. Doxorubicin(3'-N) = COc1cccc2c1C(=O)c1c(O)c3c(c(O)c1C2=O)C[C@@](O)(C(=O)CO)C[C@@H]3O[C@H]1C[C@H](N*)[C@H](O)[C@H](C)O1; X2 = COc1cccc2c1C(=O)c1c(O)c3c(c(O)c1C2=O)C[C@@](O)(C(=O)CO)C[C@@H]3O[C@H]1C[C@@H](N*)[C@H](O)[C@H](C)O1; X1 = COc1cccc2c1C(=O)c1c(O)c3c(c(O)c1C2=O)C[C@@](O)(C(=O)CO)C[C@@H]3OC1CC(N*)C(O)C(C)O1; ξPro(4R-OH) = O=C(O)C1C[C@@H](O)CN1; Glutaryl = O=C(CCCC(=O)[*:2])[*:1]; Hyp = O=C(O)[C@@H]1C[C@@H](O)CN1; Chg = N[C@H](C(=O)O)C1CCCCC1; Suc = O=C(CCC(=O)[*:2])[*:1]

Columns and labels:
[1] = organism: Rattus norvegicus; experiment: Relative potency for the inhibition of glucagon hormone release; type: functional
[2] = organism: Rattus norvegicus; experiment: Relative potency for the inhibition of insulin hormone release; type: functional
[3] = organism: Rattus norvegicus; experiment: In vitro relative potency for the inhibition of growth hormone release; type: functional
[4] = Half life period was determined; type: ADME
[5] = system: DuPro; experiment: In vitro effective concentration against DuPRO cancer cell line; type: functional, cell-based; settings: Homo sapiens
[6] = system: LNCaP; experiment: In vitro effective concentration against LNCaP prostate cancer cell line; type: functional, cell-based; settings: Homo sapiens
[7] = system: COLO 320; experiment: In vitro effective concentration against COLO 320 cell line; type: functional, cell-based; settings: Homo sapiens
[8] = system: Mus musculus; experiment: In vivo percentage reduction of prostate specific antigen (PSA) was determined at a dose of 0.26 umol/kg of the compound; type: functional, Prostate gland
[9] = system: Mus musculus; experiment: In vivo maximum tolerated dose in nude mice was determined; type: functional
[10] = system: Mus musculus; experiment: In vivo maximum tolerated dose was determined; type: functional
[11] = system: T47D; experiment: In vitro effective concentration against T47D cell line; type: functional, cell-based; settings: Homo sapiens
[12] = organism: Rattus norvegicus; experiment: Relative potency for the inhibition of growth hormone release; type: functional
[13] = organism: Rattus norvegicus; experiment: Relative potency for the inhibition of glucagon hormone release; Active; type: functional, organism-based
[14] = system: Mus musculus; experiment: In vivo percentage weight reduction of tumor was determined at a dose of 0.26 umol/kg of the compound; type: functional

Structure (SMILES)	Relative potency [2]	Relative potency [3]	half-life [4] [min]	EC50 [6] [µM]	also measured
C[C@@H](O)[C@@H]1NC(=O)[C@H](CCCCN)NC(=O)[C@H](Cc2c[nH]c3ccccc23)NC(=O)[C@H](Cc2ccccc2)NC(=O)CN2CCC[C@H](NC1=O)C2=O	< 0.07	< 0.005	–	–	Relative potency [1]: < 0.07
C[C@@H](O)[C@@H]1NC(=O)[C@H](CCCCN)NC(=O)[C@@H](Cc2c[nH]c3ccccc23)NC(=O)[C@H](Cc2ccccc2)NC(=O)[C@@H]2CCCN2C(=O)[C@H](Cc2ccccc2)N(C)C1=O	1.1	0.53	–	–	Relative potency [1]: 2
COc1cccc2c1C(=O)c1c(O)c3c(c(O)c1C2=O)C[C@@](O)(C(=O)CO)C[C@@H]3O[C@H]1C[C@@H](NC(=O)[C@H](CC(C)C)NC(=O)[C@H](CO)NC(=O)[C@H](CCC(N)=O)NC(=O)[C@@H](NC(=O)[C@H](CO)NC(=O)[C@H](C)NC(=O)[C@@H]2C[C@@H](O)CN2C(=O)CCCC(=O)O)C2CCCCC2)[C@H](O)[C@H](C)O1 (Glutaryl-[Hyp]AS[Chg]QSL-X2)	–	–	30	5	EC50 [5]: > 100 µM
CC[C@]1(O)CC[C@@H]2CN1CCC1c3ccccc3NC1[C@@H](c1cc3c(cc1OC)N(C)C1C34CCN3CC=C[C@](CC)(C34)[C@@H](OC(=O)[C@@H]3CCCN3C(=O)[C@H](CO)NC(=O)[C@H](CO)NC(=O)[C@H](CCC(N)=O)NC(=O)[C@@H](NC(=O)[C@H](CO)NC(=O)[C@H](CO)NC(=O)[C@@H]3CC(O)CN3C(C)=O)C3CCCCC3)[C@]1(O)C(=O)OC)[C@H]2C(=O)OC (stereo partly specified)	–	–	12	1.6	EC50 [7]: 14 µM; PSA [8]: 99%; Tumor weight reduction [9]: 85%; MTD [10]: 21.4 µM/kg; EC50 [11]: > 50 µM
C[C@@H](O)[C@@H]1NC(=O)[C@H](CCCCN)NC(=O)[C@@H](Cc2c[nH]c3ccccc23)NC(=O)[C@H](Cc2ccccc2)NC(=O)CN2CC[C@@H](NC1=O)C2=O	< 0.2	0.001	–	–	Relative potency [1]: < 0.2
COc1cccc2c1C(=O)c1c(O)c3c(c(O)c1C2=O)C[C@@](O)(C(=O)CO)C[C@@H]3OC1CC(NC(=O)[C@H](CC(C)C)NC(=O)[C@H](CO)NC(=O)[C@H](CCC(N)=O)NC(=O)[C@@H](NC(=O)[C@H](CO)NC(=O)[C@H](C)NC(=O)C2C[C@@H](O)CN2C(C)=O)C2CCCCC2)C(O)C(C)O1 (stereo partly drawn) (Ac-[ξPro(4R-OH)]AS[Chg]QSL-X1)	–	–	20	4.5	EC50 [5]: 100 µM
C[C@@H](O)[C@@H]1NC(=O)[C@H](CCCCN)NC(=O)[C@H](Cc2c[nH]c3ccccc23)NC(=O)[C@H](Cc2ccccc2)NC(=O)CN2CCC[C@@H](NC1=O)C2=O	< 0.07	< 0.005	–	–	Relative potency [1]: < 0.07
COc1cccc2c1C(=O)c1c(O)c3c(c(O)c1C2=O)C[C@@](O)(C(=O)CO)C[C@@H]3OC1CC(NC(=O)[C@H](CC(C)C)NC(=O)[C@H](CO)NC(=O)[C@H](CCC(N)=O)NC(=O)[C@@H](NC(=O)[C@H](CO)NC(=O)[C@H](C)NC(=O)C2C[C@@H](O)CN2C(=O)CCC(=O)O)C2CCCCC2)C(O)C(C)O1 (stereo partly drawn) (Suc-[ξPro(4R-OH)]AS[Chg]QSL-X1)	–	–	55	5.7	EC50 [5]: 100 µM
COc1cccc2c1C(=O)c1c(O)c3c(c(O)c1C2=O)C[C@@](O)(C(=O)CO)C[C@@H]3OC1CC(NC(=O)C(N)CC(C)C)C(O)C(C)O1 (stereo partly specified)	–	–	–	6.7	EC50 [5]: 14 µM
C[C@H](O)[C@H]1NC(=O)[C@@H](Cc2ccccc2)N(C)C(=O)[C@@H](C)NC(=O)[C@@H](Cc2ccccc2)NC(=O)[C@@H](Cc2c[nH]c3ccccc23)CNC(=O)[C@H](CCCCN)NC1=O	–	0.88	–	–	–
COc1cccc2c1C(=O)c1c(O)c3c(c(O)c1C2=O)C[C@@](O)(C(=O)CO)C[C@@H]3OC1CC(NC(=O)[C@H](CC(C)C)NC(=O)[C@H](CO)NC(=O)[C@H](CCC(N)=O)NC(=O)[C@H](Cc2ccc(O)cc2)NC(=O)[C@H](CO)NC(=O)[C@H](C)NC(=O)[C@H](CCCCN)NC(C)=O)C(O)C(C)O1 (stereo partly specified) (Ac-KASYQSL-X1)	–	–	30	–	–
COc1cccc2c1C(=O)c1c(O)c3c(c(O)c1C2=O)C[C@@](O)(C(=O)CO)C[C@@H]3O[C@H]1C[C@H](NC(=O)[C@H](CC(C)C)NC(=O)[C@H](CO)NC(=O)[C@H](CO)NC(=O)[C@H](CCC(N)=O)NC(=O)[C@H](Cc2ccc(O)cc2)NC(=O)[C@H](CO)NC(=O)[C@H](C)NC(=O)[C@H](CCCCN)NC(=O)[C@H](CC(N)=O)NC(=O)[C@H](C)NC(C)=O)[C@H](O)[C@H](C)O1 (Ac-ANKASYQSSL-{Doxorubicin(3'-N)})	–	–	100	–	EC50 [5]: > 100 µM
C[C@H](O)[C@H]1NC(=O)[C@@H](Cc2ccccc2)NC(=O)[C@@H](C)N(C)C(=O)[C@@H](Cc2ccccc2)NC(=O)[C@H](Cc2c[nH]c3ccccc23)CNC(=O)[C@@H](CCCCN)NC1=O	–	0.003	–	–	–
C[C@@H](O)[C@@H]1NC(=O)[C@H](CCCCN)NC(=O)[C@@H](Cc2c[nH]c3ccccc23)NC(=O)[C@H](Cc2ccccc2)NC(=O)[C@H](C)N(C)C(=O)[C@H](Cc2ccccc2)NC1=O	6	3.5	–	–	Relative potency [1]: 16.7
C[C@@H](O)[C@@H]1NC(=O)[C@H](CCCCN)NC(=O)[C@@H](Cc2c[nH]c3ccccc23)NC(=O)[C@H](Cc2ccccc2)NC(=O)[C@@H]2CSSC[C@H](NC1=O)C(=O)NCCCCCCC(=O)N2	–	–	–	–	Relative potency [12]: 1.24
C[C@H](N)C(=O)NCC(=O)N[C@H]1CSSC[C@@H](C(=O)O)NC(=O)[C@H](CO)NC(=O)[C@H]([C@@H](C)O)NC(=O)[C@H](Cc2ccccc2)NC(=O)[C@H]([C@@H](C)O)NC(=O)[C@H](CCCCN)NC(=O)[C@H](Cc2c[nH]c3ccccc23)NC(=O)[C@H](Cc2ccccc2)NC(=O)[C@H](Cc2ccccc2)NC(=O)[C@H](CC(N)=O)NC(=O)[C@H](CCCCN)NC1=O [SOMATOSTATIN]	–	1	–	–	–
C[C@@H](O)[C@@H]1NC(=O)[C@H](CCCCN)N(C)C(=O)[C@@H](Cc2c[nH]c3ccccc23)NC(=O)[C@H](Cc2ccccc2)NC(=O)[C@@H]2CCCN2C(=O)[C@H](Cc2ccccc2)NC1=O	0.5	1.6	–	–	Relative potency [13]: Active
COc1cccc2c1C(=O)c1c(O)c3c(c(O)c1C2=O)C[C@@](O)(C(=O)CO)C[C@@H]3OC1CC(NC(=O)[C@H](CC(C)C)NC(=O)[C@H](CO)NC(=O)[C@H](CCC(N)=O)NC(=O)[C@@H](NC(=O)[C@H](CO)NC(=O)[C@H](C)NC(=O)[C@H](CCCCN)NC(C)=O)C2CCCCC2)C(O)C(C)O1 (stereo partly specified) (Ac-KAS[Chg]QSL-X1)	–	–	10	–	EC50 [5]: > 100 µM
C[C@H](O)[C@H]1NC(=O)[C@@H](Cc2ccccc2)N(C)C(=O)[C@@H](C)NC(=O)[C@@H](Cc2ccccc2)NC(=O)[C@H](Cc2c[nH]c3ccccc23)CNC(=O)[C@@H](CCCCN)NC1=O	–	0.27	–	–	–
C[C@@H](O)[C@@H]1NC(=O)[C@H](CCCCN)NC(=O)[C@@H](Cc2c[nH]c3ccccc23)NC(=O)[C@H](Cc2ccccc2)NC(=O)CN2CC[C@H](NC1=O)C2=O	< 0.07	0.004	–	–	Relative potency [1]: < 0.07
CC[C@]1(O)CC[C@@H]2CN1CCC1c3ccccc3NC1[C@@H](c1cc3c(cc1OC)N(C)C1C34CCN3CC=C[C@](CC)(C34)[C@@H](OC(C)=O)[C@]1(O)C(=O)OC)[C@H]2C(=O)OC (stereo partly specified)	–	–	–	0.5	–
CC[C@]1(O)CC[C@@H]2CN1CCC1c3ccccc3NC1[C@@H](c1cc3c(cc1OC)N(C)C1C34CCN3CC=C[C@](CC)(C34)[C@@H](O)[C@]1(O)C(=O)OC)[C@H]2C(=O)OC (stereo partly specified)	–	–	–	0.1	EC50 [7]: 0.2 µM; PSA [8]: 14%; MTD [9]: 0.26 µM/kg; Tumor weight reduction [14]: 16%; EC50 [11]: 0.15 µM
